Reference: US6906073B2, “Piperazine CCR-3 receptor antagonists” (Roche Palo Alto LLC, priority 2001, dated 2005)
Where a name gives a salt, the structure may show the parent alone.

Legend:
CCR-3 receptor = molecular target: T1, CCR-3 receptor (Homo sapiens, UniProt P51677); assay: CCR-3 Receptor Binding Assay - In Vitro (inhibition of 125I eotaxin binding to CCR-3 L1.2 transfectant cells); settings: inhibition of binding of 125I eotaxin to CCR-3 L1.2 transfectant cells, 1 hour at room temperature
T1 construct: expressed in transfected cells; host or cells: L1.2 (murine pre-B lymphoma line)
T1 sequence (P51677 1-355): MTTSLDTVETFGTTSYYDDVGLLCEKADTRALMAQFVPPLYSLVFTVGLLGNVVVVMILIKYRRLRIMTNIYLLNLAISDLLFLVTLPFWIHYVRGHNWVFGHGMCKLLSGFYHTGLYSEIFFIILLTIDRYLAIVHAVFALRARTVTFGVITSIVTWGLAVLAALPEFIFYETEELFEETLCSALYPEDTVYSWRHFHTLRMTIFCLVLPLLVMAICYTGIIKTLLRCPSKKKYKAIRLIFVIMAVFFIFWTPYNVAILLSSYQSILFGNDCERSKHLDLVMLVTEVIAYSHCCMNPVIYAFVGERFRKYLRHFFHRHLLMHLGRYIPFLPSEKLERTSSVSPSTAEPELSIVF
Experimental: CCR-3 Receptor Binding Assay—In Vitro
The CCR-3 antagonistic activity of the compounds of the invention was determined by their ability to inhibit the binding of ^125I eotaxin to CCR-3 L1.2 transfectant cells (see Ponath, P. D. et al., J. Exp. Med., Vol. 183, 2437-2448, (1996)).
The assay was performed in Costar 96-well polypropylene round bottom plates. Test compounds were dissolved in DMSO and then diluted with binding buffer (50 mM HEPES, 1 mM CaCl2, 5 mM MgCl2, 0.5% bovine serum albumin (BSA), 0.02% sodium azide, pH 7.24) such that the final DMSO concentration was 2%. 25 μl of the test solution or only buffer with DMSO (control samples) was added to each well, followed by the addition of 25 μl of ^125I-eotaxin ([…]) (NEX314, New England Nuclear, Boston, Mass.) and 1.5×10^5 of the CCR-3 L1.2 transfected cells in 25 μl binding buffer. The final reaction volume was 75 μl.
After incubating the reaction mixture for 1 hour at room temperature, the reaction was terminated by filtering the reaction mixture through polyethylenimine treated Packard Unifilter GF/C filter plate (Packard, Chicago, Ill.). The filters were washed four times with ice cold wash buffer containing 10 mm HEPES and 0.5M sodium chloride (pH 7.2) and dried at 65° C. for approximately 10 minutes. 25 μl/well of Microscint-20® scintillation fluid (Packard) was added and the radioactivity retained on the filters was determined by using the Packard TopCount®

Compound `COc1cc(NC(=O)N[C@@H]2COC[C@H]2N2CCN(Cc3ccc(Cl)cc3)CC2)cc(OC)c1OC` (racemic) (as salt: hydrochloride) [compound 7, (±)-trans-1-{4-[4-(4-chlorobenzyl)-piperazin-1-yl]-tetrahydrofuran-3-yl}-3-(3,4,5-trimethoxyphenyl)urea dihydrochloride] has a melting point of 190.8 to 204.3 °C.
In the case of `COc1cc(NC(=O)N[C@@H]2COC[C@H]2N2CCN(Cc3ccc(Cl)cc3)CC2)cc(OC)c1OC` (racemic) [compound 7, (±)-trans-1-{4-[4-(4-chlorobenzyl)-piperazin-1-yl]-tetrahydrofuran-3-yl}-3-(3,4,5-trimethoxyphenyl)urea dihydrochloride], the IC50 (CCR-3 receptor) is reported as 0.11 µM.
With `O=C(Cc1cccs1)Nc1ccccc1N1CCN(Cc2ccc(Cl)c(Cl)c2)CC1` [compound 1, N-{2-[4-(3,4-dichloro-benzyl)-piperazin-1-yl]-phenyl}-2-thiophen-2-yl-acetamide] the IC50 (CCR-3 receptor) was 200 µM.
`O=C(Nc1ccccc1N1CCN(Cc2ccc(Cl)c(Cl)c2)CC1)c1ccc(F)c(F)c1` [compound 2, N-{2-[4-(3,4-dichlorobenzyl)-piperazin-1-yl]-phenyl}-3,4-difluoro-benzamide] gave an IC50 (CCR-3 receptor) of 36 µM.
Compound `Cc1ccc(C(=O)NC2CCCCC2N2CCN(Cc3ccc(Cl)c(Cl)c3)CC2)cc1` (centres unmarked) [compound 3, N-{2-[4-(3,4-Dichloro-benzyl)-piperazin-1-yl]-cyclohexyl}-4-methyl-benzamide] has an IC50 (CCR-3 receptor) of 12.8 µM.
